Assay results as given in the NIST ThermoML archive (doi:10.1016/j.tca.2011.11.009).

Conditions: Liquid, Vibrating tube method

CCCCn1cc[n+](C)c1.N#C[S-] [1-butyl-3-methylimidazolium thiocyanate]
mass density [kg/m3]
Conditions | 298.15 K | 308.15 K | 318.15 K | 328.15 K | 338.15 K
100 kPa | 1070.18 | 1063.9 | 1058.33 | 1052.54 | 1046.94
200 kPa | 1070.23 | 1063.94 | 1058.37 | 1052.59 | 1047.03
300 kPa | 1070.25 | 1064.03 | 1058.41 | 1052.62 | 1047.05
400 kPa | 1070.29 | 1064.09 | 1058.45 | 1052.69 | 1047.1
500 kPa | 1070.32 | 1064.13 | 1058.5 | 1052.69 | 1047.14
600 kPa | 1070.36 | 1064.18 | 1058.54 | 1052.75 | 1047.17
800 kPa | 1070.43 | 1064.29 | 1058.61 | 1052.82 | 1047.27
1000 kPa | 1070.5 | 1064.35 | 1058.68 | 1052.94 | 1047.33
2000 kPa | 1070.88 | 1064.73 | 1059.07 | 1053.31 | 1047.74
4000 kPa | 1071.63 | 1065.48 | 1059.88 | 1054.11 | 1048.56
6000 kPa | 1072.37 | 1066.26 | 1060.63 | 1054.91 | 1049.39
8000 kPa | 1073.11 | 1067.02 | 1061.43 | 1055.68 | 1050.19
10000 kPa | 1073.83 | 1067.77 | 1062.18 | 1056.48 | 1050.99

CCn1cc[n+](C)c1.N#C[S-] [1-ethyl-3-methylimidazolium thiocyanate]
mass density [kg/m3]
Conditions | 298.15 K | 308.15 K | 318.15 K | 328.15 K | 338.15 K
100 kPa | 1116.69 | 1110.39 | 1104.8 | 1098.18 | 1092.87
200 kPa | 1116.71 | 1110.42 | 1104.83 | 1098.22 | 1092.93
300 kPa | 1116.72 | 1110.47 | 1104.87 | 1098.27 | 1092.97
400 kPa | 1116.77 | 1110.5 | 1104.91 | 1098.31 | 1093
500 kPa | 1116.82 | 1110.54 | 1104.97 | 1098.32 | 1093.05
600 kPa | 1116.86 | 1110.59 | 1105 | 1098.38 | 1093.11
800 kPa | 1116.92 | 1110.68 | 1105.04 | 1098.43 | 1093.18
1000 kPa | 1117 | 1110.74 | 1105.13 | 1098.54 | 1093.24
2000 kPa | 1117.35 | 1111.1 | 1105.5 | 1098.87 | 1093.64
4000 kPa | 1118.04 | 1111.81 | 1106.24 | 1099.64 | 1094.38
6000 kPa | 1118.74 | 1112.53 | 1106.96 | 1100.38 | 1095.15
8000 kPa | 1119.43 | 1113.24 | 1107.68 | 1101.1 | 1095.91
10000 kPa | 1120.11 | 1113.94 | 1108.39 | 1101.83 | 1096.65
